# Test results reported in patent US20090208543A1, “METHOD AND APPARATUS FOR APPLYING A PROTECTIVE ORAL CARE COMPOSITION” (Oral Health Clinical Services, priority 2008, published 2009).
# Experiment: Tooth bleaching effectiveness of gels on extracted human teeth (chroma meter, Delta E)
# Details: comparison of catalase inhibitors
# Experimental: Tooth bleaching effectiveness of the above gels was determined by using extracted human teeth. The teeth were freshly extracted, freed of all adherent tissues and stored in a sterile saline solution. The teeth were removed and the color was measured using a chroma meter commercially available from MINOLTA CR221. Readings were taken to record the L*, a*, and b* parameters. The teeth were then incubated in the various gels for 30 minutes. After this period, the gels were washed off and L*, a*, and b* parameters color re-measured. The change in color (Delta E) was then calculated using the CIE L*a*b* color difference equation:
# Delta E=[(delta L*)^2+(delta a*)^2+(delta b*)^2]^0.5
structure (smiles),measurement,value
[F-].[Na+] [sodium fluoride],effectiveness among the compositions comprising the inhibitors,least effective
